Laboratory results: patent US4045298A, “Antibiotic XK-62-2 and process for production thereof” (priority 1972, dated 1977)
Converted amounts (≈) assume the structure as drawn. “Also recorded” adds a separate entry of the source.

Legend:
[1] = test system: Bacillus subtilis No. 10707; assay: Activity (unit/mg) of isolated preparations; paper disk method using an agar plate; assay type: cell-based
Description: (§1) After the completion of fermentation, the culture liquor is adjusted to a pH of 2.0 with 12N sulfuric acid and stirred for 30 minutes. Then, about 10 kg of a filter aid, Radiolite No. 600 (product of Showa Kagaku Kogyo Co., Ltd., Japan) is added thereto and the microbial cells are removed by filtration. The filtrate is adjusted to a pH of 8.0 with 6N sodium hydroxide and passed through a column packed with about 50 l of a cation exchange resin, Amberlite IRC-50 (ammonia form). The active substance is adsorbed on the resin and the eluate is discarded. After washing the resin with water, the active substance is eluted out with 1N aqueous ammonia.
Active fractions are combined and concentrated in vacuo to about 5 l. The concentrate is then adjusted to a pH of 8.0 with 6N sulfuric acid and passed through a column packed with 1 l of an anion exchange resin, Dowex 1×2 (OH^- form). The column is washed with about 5 l of water and the effluent and the washings containing active substance are combined and are concentrated to 1/15 by volume. […] The resultant precipitate is removed by filtration and the filtrate is concentrated to 500 ml. The concentrate is adjusted to a pH of 4.5 with 6N sulfuric acid and 2.5 l of methanol is added thereto. […] The precipitate is separated by filtration and washed with methanol.
as §1, with “of” for “of a filter aid,”, “(trade name)” for “(product of Showa Kagaku Kogyo Co., Ltd., Japan)”, “The” for “The active substance is adsorbed on the resin and the”

[2] = test system: Proteus mirabilis No. 825; assay: Minimum inhibitory concentration by agar dilution method; assay type: cell-based; conditions: NO.825, read-out: Minimum inhibitory concentration
Description: (§2) The comparative in vitro activities of these antibiotics against various microorganisms of the genus Proteus are shown in the following Table 6.
(§3) Minimum inhibitory concentration
(§4) (γ/ml : by agar dilution method)

[3] = test system: Proteus rettgeri Booth; assay: as above; assay type: cell-based; conditions: Providencia rettgeri, read-out: Minimum inhibitory concentration
Description: as §2, §3, §4

[4] = test system: Proteus mirabilis Finland 9; assay: as above; assay type: cell-based; conditions: FINLAND9, read-out: Minimum inhibitory concentration
Description: as §2, §3, §4

[5] = test system: Proteus rettgeri Hambrook; assay: as above; assay type: cell-based; conditions: Providencia rettgeri, read-out: Minimum inhibitory concentration
Description: as §2, §3, §4

[6] = test system: Proteus mirabilis No. 39; assay: as above; assay type: cell-based; conditions: NO.39, read-out: Minimum inhibitory concentration
Description: as §2, §3, §4

[7] = test system: Proteus morganii Jenkins; assay: as above; assay type: cell-based; conditions: Morganella morganii, read-out: Minimum inhibitory concentration
Description: as §2, §3, §4

[8] = test system: Proteus vulgaris Abbott JJ; assay: as above; assay type: cell-based; conditions: read-out: Minimum inhibitory concentration
Description: as §2, §3, §4

[9] = test system: specific enzyme system which inactivates gentamicin C1a or kanamycin by acetylating; assay type: biochemical, Pseudomonas aeruginosa; conditions: acetylating enzyme of KY 8510 and 8516 strains
[10] = test system: Proteus vulgaris ATCC 6897; assay: Minimum inhibitory concentration by agar dilution method; assay type: cell-based; conditions: ATCC6897, read-out: Minimum inhibitory concentration
Description: Antibacterial spectra of XK-62-2 by agar
as §2, §3, §4

[11] = test system: Pseudomonas aeruginosa KY 8510; assay: as above; assay type: cell-based; conditions: Pseudomonas aeruginosa, KY8510; agar dilution; clinical isolate; Table 7
Description: as §3, §4

[12] = test system: Pseudomonas aeruginosa KY 8520; assay: as above; assay type: cell-based; conditions: KY8520, clinical isolate, Table 7
Description: as §3, §4

[13] = test system: Pseudomonas aeruginosa KY 8514; assay: as above; assay type: cell-based; conditions: KY8514, clinical isolate, Table 7
Description: as §3, §4

[14] = test system: Pseudomonas aeruginosa KY 8515; assay: as above; assay type: cell-based; conditions: KY8515, clinical isolate, Table 7
Description: as §3, §4

[15] = test system: Pseudomonas aeruginosa KY 8562; assay: as above; assay type: cell-based; conditions: KY8562, clinical isolate, Table 7
Description: as §3, §4

[16] = test system: Pseudomonas aeruginosa KY 4276; assay: as above; assay type: cell-based; conditions: KY4276, clinical isolate, Table 7
Description: as §3, §4

[17] = test system: Pseudomonas aeruginosa KY 8512; assay: as above; assay type: cell-based; conditions: KY8512, clinical isolate, Table 7
Description: as §3, §4

[18] = test system: Pseudomonas aeruginosa KY 8511; assay: as above; assay type: cell-based; conditions: KY8511, clinical isolate, Table 7
Description: as §3, §4

[19] = test system: Pseudomonas aeruginosa KY 8516; assay: as above; assay type: cell-based; conditions: Pseudomonas aeruginosa, KY8516; agar dilution; clinical isolate; Table 7
Description: as §3, §4

[20] = Solubility; assay type: physicochemical
[21] = Example 2, free base, Mm-628 ATCC 21827
[22] = Example 6, free base, Micromonospora purpurea ATCC 15835
[23] = Example 7, free base, Micromonospora echinospora ATCC 15837 NRRL 2985
[24] = Example 7, free base, Micromonospora echinospora var. ferruginea NRRL 2995
[25] = Example 7, free base, Micromonospora echinospora var. pallida NRRL 2996

Work on `CN[C@@H]1[C@@H](O)[C@@H](O[C@@H]2[C@@H](O)[C@H](O[C@H]3O[C@H]([C@@H](C)NC)CC[C@H]3N)[C@@H](N)C[C@H]2N)OC[C@]1(C)O` [gentamicin C1, reference compound] yielded an Activity [1, 21] of 880 unit/mg, an Activity [1, 22] of 821 unit/mg and an Activity [1, 23] of 906 unit/mg. The Activity [1, 24] was 830 unit/mg and the Activity [1, 25] was 940 unit/mg.
In the case of `CN[C@@H]1[C@@H](O)[C@@H](O[C@@H]2[C@@H](O)[C@H](O[C@H]3O[C@H]([C@@H](C)N)CC[C@H]3N)[C@@H](N)C[C@H]2N)OC[C@]1(C)O` [gentamicin C2, reference compound], the Activity [1, 21] is reported as 925 unit/mg, the Activity [1, 22] is reported as 880 unit/mg and the Activity [1, 23] is reported as 845 unit/mg. It also gave an Activity [1, 24] of 853 unit/mg and an Activity [1, 25] of 859 unit/mg.
For `NC[C@H]1O[C@H](O[C@H]2[C@H](O)[C@@H](O[C@H]3O[C@H](CO)[C@@H](O)[C@H](N)[C@H]3O)[C@H](N)C[C@@H]2N)[C@H](O)[C@@H](O)[C@@H]1O` [kanamycin], the MIC [2] was 0.04 µg/mL (≈ 0.0826 µM), the MIC [3] was 0.08 µg/mL (≈ 0.165 µM) and the MIC [4] was 0.04 µg/mL (≈ 0.0826 µM). It also gave an MIC [5] of 0.08 µg/mL (≈ 0.165 µM), an MIC [6] of 0.33 µg/mL (≈ 0.681 µM) and an MIC [7] of 0.16 µg/mL (≈ 0.33 µM). The MIC [8] was 0.16 µg/mL (≈ 0.33 µM), the “Inactivation by acetylation (6'-NH2)” value [9] was “inactivates” and the MIC [10] was 0.34 µg/mL (≈ 0.702 µM). For the same compound, the MIC [11] was 13 µg/mL (≈ 26.8 µM), the MIC [12] was 104 µg/mL (≈ 215 µM) and the MIC [13] was 208 µg/mL (≈ 429 µM). For the same compound, the MIC [14] was 416 µg/mL (≈ 859 µM), the MIC [15] was 167 µg/mL (≈ 345 µM) and the MIC [16] was 1.63 µg/mL (≈ 3.36 µM). For the same compound, the MIC [17] was 3.3 µg/mL (≈ 6.81 µM), the MIC [18] was 13 µg/mL (≈ 26.8 µM) and the MIC [19] was 26 µg/mL (≈ 53.7 µM).
In the case of `[H]/N=C(/N)N[C@H]1[C@H](O)[C@@H](O)[C@H](O[C@@H]2O[C@@H](C)[C@](O)(C=O)[C@H]2O[C@@H]2O[C@@H](CO)[C@H](O)[C@@H](O)[C@@H]2NC)[C@@H](N/C(N)=N\[H])[C@@H]1O` [streptomycin], the MIC [2] is reported as > 40 µg/mL, the MIC [3] is reported as > 40 µg/mL and the MIC [4] is reported as > 40 µg/mL. For the same compound, the MIC [5] was > 40 µg/mL, the MIC [6] was > 40 µg/mL and the MIC [7] was > 40 µg/mL. For the same compound, the MIC [8] was > 40 µg/mL, the MIC [10] was > 40 µg/mL and the MIC [11] was 0.65 µg/mL (≈ 1.12 µM). It also gave an MIC [12] of 5.2 µg/mL (≈ 8.94 µM), an MIC [13] of 156 µg/mL (≈ 268 µM) and an MIC [14] of 624 µg/mL (≈ 1070 µM). It also gave an MIC [15] of 156 µg/mL (≈ 268 µM), an MIC [16] of 2.6 µg/mL (≈ 4.47 µM) and an MIC [17] of 42 µg/mL (≈ 72.2 µM). The MIC [18] was > 2500 µg/mL and the MIC [19] was 0.65 µg/mL (≈ 1.12 µM).
For `CNC[C@@H]1CC[C@@H](N)[C@@H](O[C@H]2[C@H](O)[C@@H](O[C@H]3OC[C@](C)(O)[C@H](NC)[C@H]3O)[C@H](N)C[C@@H]2N)O1` [sulfate of XK-62-2], the Solubility in acetone ([20]; acetone) was “insoluble”, the Solubility in methanol ([20]; methanol) was “poorly soluble; also recorded: insoluble” and the Solubility in water ([20]; water) was “very soluble”. It also gave an Activity ([1]; Example 4, sulfate) of 792 unit/mg.
